According to ChEMBL document CHEMBL1139447, “Discovery of novel PTP1b inhibitors” (Bioorg Med Chem Lett, 2004):

Assay: Compound was tested for inhibition of Protein tyrosine phosphatase (PTP1B)

Row | IC50 [µM] | Kd [µM] | SMILES
1 | 60 | 25 | O=c1c(O)c(-c2ccccc2)c1=O
2 | > 300 | 100 | O=Cc1ccccn1 [2-PYRIDINECARBOXALDEHYDE]
3 | > 300 | 150 | O=CCCc1ccccc1 [DIHYDROCINNAMALDEHYDE]
